The source of these data is US9975917B1, “Pentacyclic triterpenoidal derivatives” (KING SAUD UNIVERSITY, priority 2017, dated 2018).

Series [1] concerns the target T1, 5-Lipoxygenase (Rattus norvegicus, UniProt P12527).
T1 construct: from 20 μM exogenous substrate in 105.000 g supernatants of rat PMNL (System B); from tissue; host or cells: 105,000 g supernatant of sonicated peritoneal PMNL of Wistar rats
T1 sequence (P12527 1-673): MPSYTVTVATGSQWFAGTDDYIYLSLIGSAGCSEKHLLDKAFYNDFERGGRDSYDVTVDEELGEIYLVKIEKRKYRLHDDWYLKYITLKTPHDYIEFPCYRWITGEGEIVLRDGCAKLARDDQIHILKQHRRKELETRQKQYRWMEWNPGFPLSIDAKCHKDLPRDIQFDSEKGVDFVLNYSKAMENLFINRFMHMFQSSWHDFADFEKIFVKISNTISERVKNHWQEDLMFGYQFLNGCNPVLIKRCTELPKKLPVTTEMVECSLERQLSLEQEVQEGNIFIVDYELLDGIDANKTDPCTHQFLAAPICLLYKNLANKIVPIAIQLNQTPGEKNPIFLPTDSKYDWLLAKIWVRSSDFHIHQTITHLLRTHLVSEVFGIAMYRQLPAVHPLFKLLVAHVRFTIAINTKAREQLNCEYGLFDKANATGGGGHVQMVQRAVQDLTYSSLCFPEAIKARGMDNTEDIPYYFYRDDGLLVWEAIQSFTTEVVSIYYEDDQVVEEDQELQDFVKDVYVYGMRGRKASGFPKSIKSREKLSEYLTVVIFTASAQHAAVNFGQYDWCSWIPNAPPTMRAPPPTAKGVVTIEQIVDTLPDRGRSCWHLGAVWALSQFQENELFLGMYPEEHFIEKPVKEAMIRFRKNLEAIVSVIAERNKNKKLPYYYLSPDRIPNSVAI
Put plainly: 5-LOX product formation from 20 μM exogenous substrate in 105,000 g supernatants of rat PMNL, cell-free (System B). It is filed as biochemical. As to conditions: cell-free 105,000 g supernatant of rat PMNL, 20 μM arachidonic acid, 1 mM ATP, 1.8 mM CaCl2, 37° C. 5 min; means±standard deviation, n=6. The procedure:
(§1) Glycogen-elicited rat peritoneal PMNL were collected 4 hours after the injection of a glycogen solution (5%) in Dulbecco's phosphate-buffered saline (PBS) into the peritoneum of 300-350 g Wistar rats. The washed cells (>90% PMNL) were lysed at 2×10^7 cells mL^−1 by sonication (3×5 s, digital Sonifier) in PBS containing 1 mm EDTA, and were subjected to sequential centrifugation at 10,000 and 105,000 g for 10 and 60 min (4° C.), respectively. Freshly obtained PMNL suspensions and aliquots of the 105,000 g supernatants were assayed for 5-lipoxygenase activity.
(§2) For 5-lipoxygenase product formation from endogenous arachidonic acid, glycogen-elicited rat peritoneal PMNL (1×10^7 cells) were stimulated at 37° C. for 5 min by ionophore A23187 and Ca^2+. The 5-lipoxygenase activity in the cell-free system was tested in aliquots (corresponding to 1×10^7 cells) of the 105,000 g supernatant fraction of rat PMNL in the presence of 1 mm ATP, 1.8 mM CaCl2, 1 mM EDTA, and 20 μM arachidonic acid at 37° C. for 5 min. In both intact cells and cell-free tests, the incubations were terminated by cooling to 4° C. and acidification to pH of 3 with formic acid. For inhibition studies, the test compounds dissolved in dimethyl sulphoxide (DMSO) were added 5 min prior to initiation.
(§3) Inhibitors and non-inhibitory pentacyclic triterpenes were added simultaneously. All incubations, including controls, were carried out in the presence of 0.5% DMSO. The 5-lipoxygenase products were quantified after the addition of 170 ng PGB2 as an internal standard by extraction, with RP-HPLC separation and ultraviolet detection of products. With intact rat PMNL and the 105,000 g supernatant fraction the main products from arachidonic acid of 5 min incubations were leukotriene B4 (LTB4), 6-trans-LTB4, 12-epi-6-trans-LTB4 and 5-HETE along with negligible amounts of 5(S), 12(S)-diHETE.
(§4) FIG. 2 is a graph showing the effects of the pentacyclic triterpenoidal derivatives on 5-Lox product formation for System A. FIG. 3 is a graph showing the effects of the pentacyclic triterpenoidal derivatives on 5-Lox product formation for System B. Inhibition concentrations (IC50) of the biological effect of each of the compounds were determined after logit-log transformation of the data for each experiment. Data of independent observations (n=6) are shown as means±standard deviation.

Series [2] addresses T1, 5-Lipoxygenase. Put plainly: 5-LOX product formation from endogenous arachidonic acid in ionophore-stimulated intact rat PMNL (System A). It is filed as cell-based. Particulars: ionophore A23187 and Ca2+, 37° C. 5 min, means±standard deviation, n=6. The protocol: as §1, §2, §3, §4

Turning to `CC1CCC2(C)CCC3(C)C(=CC(=O)C4C5(C)CCC(=O)C(C)(c6ccccc6)C5CCC43C)C2C1C` (centres unmarked) [Compound 5, 24-norurs-12-en-24(phenyl)-3,11-dione], the melting point (as a rule, the temperature, or range, at which the solid turns liquid) came to 256 °C. The half-inhibitory concentration (IC50) (as a rule, the point on the concentration scale where inhibition reaches its midpoint) at 5-Lipoxygenase [1] worked out at 0.28 µM. The same molecule registered an IC50 on 5-Lipoxygenase [2] of 0.17 µM.

Take `CC1CCC2(C)CCC3(C)C(=CC(=O)C4C5(C)CCC(=O)C(C)(C(=O)c6ccccc6)C5CCC43C)C2C1C` (centres unmarked) [Compound 4, 3,11-dioxo-24(phenyl)-urs-12-en-24-one]: the melting point amounted to 300 °C. The same molecule displayed an IC50 on 5-Lipoxygenase [1] of 0.098 µM. This molecule came in with an IC50 at 5-Lipoxygenase [2] of 0.078 µM.

Turning to `CC1CCC2(C)CCC3(C)C(=CC(=O)C4C5(C)CCC(=O)C(C)(C(=O)Cl)C5CCC43C)C2C1C` (stereo not drawn) [Compound 3, 3,11-dioxo-urs-12-en-24β-acid chloride], the IC50 against 5-Lipoxygenase [1] turned out to be 0.34 µM; against 5-Lipoxygenase [2], 0.19 µM.

For the molecule `CC1CCC2(C)CCC3(C)C(=CC(=O)C4C5(C)CCC(O)C(C)(C(=O)O)C5CCC43C)C2C1C` (stereo not drawn) [11-keto-β-boswellic acid/1, 11-keto-β-boswellic acid, reference compound], the IC50 against 5-Lipoxygenase [1] is 14.6 µM; on 5-Lipoxygenase [2], 2.8 µM.

In the case of `CC1CCC2(C)CCC3(C)C(=CC(=O)C4C5(C)C=CC(=O)C(C)(c6ccccc6)C5CCC43C)C2C1C` (centres unmarked) [Compound 7, 24-nor-urs-1,12-diene-24(phenyl)-3,11-dione], the melting point worked out at 267 °C. The same molecule had an IC50 against 5-Lipoxygenase [1] of 0.24 µM. This molecule also yielded an IC50 against 5-Lipoxygenase [2] of 0.12 µM.

With `CC1CCC2(C)CCC3(C)C(=CC(=O)C4C5(C)C=CC(=O)C(C)(C(=O)c6ccccc6)C5CCC43C)C2C1C` (centres unmarked) [Compound 6, 3,11-dioxo-24(Phenyl)-urs-1,12-diene-24-one], the IC50 against 5-Lipoxygenase [1] is 0.044 µM; at 5-Lipoxygenase [2], 0.021 µM.

Consider `CC(=O)O[C@@H]1CC[C@@]2(C)[C@@H](CC[C@]3(C)[C@@H]2C(=O)C=C2[C@@H]4[C@@H](C)[C@H](C)CC[C@]4(C)CC[C@]23C)[C@@]1(C)C(=O)O` [AKBA, Acetyl-11-keto-β-boswellic acid, reference compound], for which the results for the IC50 against 5-Lipoxygenase [1] and against 5-Lipoxygenase [2] were 7 µM and 1.5 µM, respectively.
